Laboratory results as given in paper PMC4992173, “Divergent synthesis and identification of the cellular targets of deoxyelephantopins” (Nature Communications, 2016).

Tested on: Caco-2 cells
Assay: In situ global proteomics profiling of Caco-2 cells (LC-MS/MS, LFQ)
Format: cell-based, human
Details: for Log2 20 µM DEP/DMSO: LFQ
Procedure: Figure 7 Identification of PPARγ as target of deoxyelephantopin and screening of DEP derivatives as PPARγ antagonists. (a) Quantification of endogenous PPARγ enriched from Caco-2 cells using 10 μM 24c following in situ treatment with DEP (20 μM) or DMSO (normalized LFQ values±s.d. are shown; n=6). (b) Changes in expression levels of five PPARγ-dependent proteins following 24 h treatment of Caco-2 cells with DMSO, rosiglitazone (10 μM), T0070907 (50 μM) or DEP (20 μM; LFQ ratios±s.d. are shown; n=3). **P<0.005 and ***P<0.0005 by two-sided Student's t-test. (c) Gel-based competitive screening of DEP and analogues as PPARγ antagonists against recombinant human enzyme (top). hPPARγ was treated with each compound (20 μM) for 1 h followed by treatment with 24c-Cy3 (10 μM) as probe. Quantification of fluorescence intensity in the competitive screening for PPARγ antagonists (bottom; values±s.d. are shown; n=3).
Caco-2 cells were treated with DMSO, PPARγ agonist rosiglitazone, antagonist T0070907 or DEP for 24 h, the cells were collected and the proteomes were comparatively analysed by LC–MS/MS. […] Furthermore, the list of 43 dysregulated proteins was analysed and classified using the GOrilla pathway analysis tool (Supplementary Fig. 15). […]
In situ global proteomics profiling using LC-MS/MS. Caco- ’ cells/mL) in a 6-well plate, allowed to grow to confluence and to differentiate for 28 days. The wells were washed one time with PBS and treated with either DMSO, 10 µM rosiglitazone, 50 µM T0070907 or 20 µM DEP for 24 hours. Cells were washed two times with PBS and lysates were prepared. Samples (30 µg) were denatured with 6 M urea in 50 mM NH4HCO3, reduced […]
dark. Samples were diluted to 2 M urea with 50 mM NH4HCO3, and digested with trypsin ([…] for 12 hours at 37 °C. Samples were acidified to a final concentration of 5% acetic acid, desalted over a self-packed C18 spin column and […]
dried. […]
LC-MS/MS analysis. Peptides were resuspended in water with 0.1% formic acid (FA) and analyzed using Proxeon EASY-nLC 1000 nano-UHPLC coupled to QExactive Plus Quadrupole-Orbitrap mass spectrometer (Thermo Scientific). The chromatography column […]
H2O (Buffer A) and 0.1% FA in MeCN (Buffer B). Peptides were eluted into the mass spectrometer at a flow rate of 300 nL/min. over a 240 min. linear gradient (3-35% Buffer B) at 50 °C. Data was acquired in data-dependent mode (top- N = ’ […]
and isotope exclusion was enabled.
MaxQuant analysis. The MS data was analyzed with MaxQuant (V1.5.2.8) and searched against the human proteome (Uniprot, 89,649 entries) and a common list of contaminants (included in MaxQuant). The first peptide search tolerance was set to 20 ppm, 10 ppm was used for the main peptide search and fragment mass tolerance was set to 0.02 Da. The false discovery rate for peptides, proteins and sites identification was set to 1%. The minimum peptide length was set to 6 amino acids and peptide re-quantification, label-free quantification (MaxLFQ) and “ ” were enabled. The minimal number of peptides per protein was set to two. Oxidized methionines and N-terminal acetylation were searched as variable modifications and carbamidomethylation of cysteines was searched as a fixed modification. For SILAC experiments 13C6 L-lysine and 13C6 15N4 L-arginine were set as heavy isotope labels and 12C6 L-lysine and 12C6 14N4 L-arginine as light isotope labels.
19 d k g h ARγ. 19a was covalently docked to the crystal structure of human γ ZU 190 using the GOLD suite (V5.3, CCDC). The default GOLD fitness function was used to determine the best binding configuration. The distance for hydrogen bonding was set to 3 Å.
IAA competition of 23c, 24c and DEP h ARγ. γ
(500 ng in 9 µL PBS) was treated with either 100 µM DEP, 23c, 24c or DMSO (1 µL of 10x stock in DMSO) for one hour. Samples were denatured with 6 M urea in 50 mM NH4HCO3, […]
in the dark. Samples were diluted to 2 M urea with 50 mM NH4HCO3, and digested with trypsin […]

## C=C(C)C(=O)O[C@H]1CC2=C[C@@H](C/C(C)=C/[C@H]3OC(=O)C(=C)[C@H]13)OC2=O [deoxyelephantopin]
20 µM, 24 h, compared with rosiglitazone and T0070907
  mode of action on PPARγ in cells: antagonist of PPARγ
Protein ALDH3B1, 24 h
  Log2 20 µM DEP/DMSO: -0.67
Protein ARHGAP17, 24 h
  Log2 20 µM DEP/DMSO: -0.97
Protein ARMCX3, 24 h
  Log2 20 µM DEP/DMSO: -0.92
Protein COL4A3BP, 24 h
  Log2 20 µM DEP/DMSO: -0.76
Protein CROT, 24 h
  Log2 20 µM DEP/DMSO: -0.68
Protein CTBP2, 24 h
  Log2 20 µM DEP/DMSO: 0.72
Protein DDX21, 24 h
  Log2 20 µM DEP/DMSO: 0.82
Protein FNTA, 24 h
  Log2 20 µM DEP/DMSO: -0.62
Protein GID8, 24 h
  Log2 20 µM DEP/DMSO: 0.68
Protein GIPC2, 24 h
  Log2 20 µM DEP/DMSO: -0.69
Protein GIT2, 24 h
  Log2 20 µM DEP/DMSO: -0.92
Protein GSTA1, 24 h
  Log2 20 µM DEP/DMSO: -0.81
Protein GSTA2, 24 h
  Log2 20 µM DEP/DMSO: -0.87
Protein GSTM3, 24 h
  Log2 20 µM DEP/DMSO: -0.84
Protein HIGD1A, 24 h
  Log2 20 µM DEP/DMSO: 0.69
Protein IREB2, 24 h
  Log2 20 µM DEP/DMSO: 0.65
Protein ITGB4, 24 h
  Log2 20 µM DEP/DMSO: 0.92
Protein LDHD, 24 h
  Log2 20 µM DEP/DMSO: -0.60
Protein LDLR, 24 h
  Log2 20 µM DEP/DMSO: 1.72
Protein LIPA, 24 h
  Log2 20 µM DEP/DMSO: -0.68
Protein MARCH5, 24 h
  Log2 20 µM DEP/DMSO: 1.85
Protein MGMT, 24 h
  Log2 20 µM DEP/DMSO: -0.81
Protein MYO15B, 24 h
  Log2 20 µM DEP/DMSO: -1.00
Protein NOP9, 24 h
  Log2 20 µM DEP/DMSO: 1.57
Protein OAS1, 24 h
  Log2 20 µM DEP/DMSO: 1.10
Protein OGDHL, 24 h
  Log2 20 µM DEP/DMSO: -0.98
Protein PANK4, 24 h
  Log2 20 µM DEP/DMSO: -0.81
Protein PHPT1, 24 h
  Log2 20 µM DEP/DMSO: -0.79
Protein PSIP1, 24 h
  Log2 20 µM DEP/DMSO: 0.76
Protein RAB5B, 24 h
  Log2 20 µM DEP/DMSO: 0.79
Protein RBP4, 24 h
  Log2 20 µM DEP/DMSO: -1.03
Protein RRS1, 24 h
  Log2 20 µM DEP/DMSO: 0.65
Protein SAMHD1, 24 h
  Log2 20 µM DEP/DMSO: -0.97
Protein SCAMP3, 24 h
  Log2 20 µM DEP/DMSO: 0.63
Protein SETDB1, 24 h
  Log2 20 µM DEP/DMSO: 0.81
Protein SLC26A3, 24 h
  Log2 20 µM DEP/DMSO: -0.98
Protein SLC39A14, 24 h
  Log2 20 µM DEP/DMSO: -0.74
Protein STK4, 24 h
  Log2 20 µM DEP/DMSO: -0.74
Protein SURF6, 24 h
  Log2 20 µM DEP/DMSO: 1.30
Protein TGOLN2, 24 h
  Log2 20 µM DEP/DMSO: 1.03
Protein TPD52L1, 24 h
  Log2 20 µM DEP/DMSO: -0.71
Protein TTR, 24 h
  Log2 20 µM DEP/DMSO: -0.97
Protein VPS52, 24 h
  Log2 20 µM DEP/DMSO: 0.63
